# According to patent US10138282B2, “Peptide antagonist of LL-37” (INDIANA UNIVERSITY RESEARCH AND TECHNOLOGY CORPORATION, priority 2014, dated 2018):
# “Also recorded” adds a separate entry of the source. Where no end group is shown, it is not given here.
# Legend:
# TLR3 signaling = assay: IL-6 production (ELISA) in BEAS-2B cells induced with poly(I:C); type: cell-based, human; settings: for Enhancement of TLR3 signaling / poly(I:C)-induced IL-6, in words: BEAS-2B cells; for IL-6 production (%) poly(I:C)-depend.: BEAS-2B cells induced with 130 ng/ml of poly(I:C), LL-37 100
# Method: (§1) IL-6 production was quantified by ELISA using the OptEIA™ kit (BD Biosciences). A typical assay used 2×10^4 BEAS-2B cells/well grown for 24 h in flat bottom 96-well plates. Poly(I:C) was added to a final concentration of 0.13 μg/ml. Antimicrobial peptides were added to the cell culture medium to a final concentration of 3 μM unless specified otherwise. All ELISA results shown were performed in triplicate and in at least three independent experiments.
# (§2) To better define how residues in LL-37 contribute to function, several variants derived from LL-37 were tested for: 1) repression of TLR4 signaling by LPS, 2) enhancement of TLR3 signaling by poly(I:C), and 3) binding to LL-37. Signaling by TLR3 and TLR4 were monitored using ELISA to detect IL-6 secreted into the medium of BEAS-2B cells.
# f-LL37 = molecular target: T1, f-LL37 (Homo sapiens, UniProt P49913); assay: Fluorescence polarization, interaction of peptides with fluorescein-labeled LL-37; type: binding
# T1 sequence (P49913 134-170 limits assumed): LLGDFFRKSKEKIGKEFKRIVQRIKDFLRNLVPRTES
# Method: (§3) Peptide binding to poly(I:C) was analyzed by monitoring fluorescence polarization using the Synergy H1 microplate reader (BioTek). Fluorescein-labeled LL-37 was titrated to a 100 μL solution containing poly(I:C) and phosphate buffers at different pHs. Interactions between LL-37 and other peptides were analyzed using LL-37 labeled at the N-terminus with fluorescein (0.1 μM), and peptides were titrated from 1 nM to 1000 nM in phosphate buffer at pH 7.0. Interaction between poly(I:C) and different peptides was determined by titrating fluorescein-labeled poly(I:C) (0.1 μM) with peptides added to final concentrations of 10 to 500 nM in phosphate buffer at pH 7.4. All polarization assays were performed in triplicate.
# TLR4 signaling = assay: IL-6 production (ELISA) in BEAS-2B cells induced with LPS; type: cell-based, human; settings: for IL-6 production (%) LPS-depend.: BEAS-2B cells induced with 1.0 μg/ml of LPS, LL-37 100
# Method: as §1, §2
# [1] = Dynamic light scatter spectroscopy, hydrodynamic radius; type: physicochemical; settings: for Hydrodynamic radius (nm) pH 5.8 / Hydrodynamic radius (nm) pH 7.4: 1.0 μM peptide; for Hydrodynamic radius (nm) pH 5.8: phosphate buffer pH 5.8; for Hydrodynamic radius (nm) pH 7.4: phosphate buffer pH 7.4; for pH-dependent dissociation of peptide particles, in words: acidification of phosphate buffer
# Method: The hydrodynamic radii of LL-37 and other peptides were monitored by a Zetasizer Nano-S instrument (Malvern Instruments). All measurements were taken with 1 μM of peptide dissolved in phosphate buffer adjusted to the desired pH at 22° C.
# FPRL-1 receptor = molecular target: T2, FPRL-1 receptor (Homo sapiens, UniProt P25090); assay: IL-6 production in BEAS-2B cells knocked down with siRNA (FPRL-1, EGFR, control); type: cell-based; settings: for IL-6 production, peptide with poly(I:C), in words: knockdown of either FPRL-1 or EGFR; for IL-6 production, peptide added along with LL-37 and poly(I:C), in words: siRNA to FPRL-1 or nonspecific control
# T2 construct: a human lung epithelial cell line that expresses endogenous FPRL-1; endogenous in cells; host or cells: BEAS-2B
# T2 sequence (P25090 1-351): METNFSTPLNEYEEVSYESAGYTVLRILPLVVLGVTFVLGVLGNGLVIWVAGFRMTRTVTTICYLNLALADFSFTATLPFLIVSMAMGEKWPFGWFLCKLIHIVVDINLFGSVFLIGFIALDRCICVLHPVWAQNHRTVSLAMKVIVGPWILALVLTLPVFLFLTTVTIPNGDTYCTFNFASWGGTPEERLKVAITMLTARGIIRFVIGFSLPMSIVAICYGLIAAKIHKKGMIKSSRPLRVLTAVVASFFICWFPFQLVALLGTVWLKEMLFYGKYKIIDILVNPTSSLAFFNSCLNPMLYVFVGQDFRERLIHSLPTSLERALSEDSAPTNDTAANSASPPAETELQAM
# Method: BEAS-2B cells were seeded at 2×10^6 cells per 6-well plate for 6 h prior to transfection with 30 nM of a pool of three siRNAs from Santa Cruz Biotechnology. Transfections were done using Lipofectamine 2000.
# Cells were grown on poly-L-lysine (Life Technologies). The level of target mRNA was analyzed using qRT-PCR and normalized to the levels of GAPDH mRNA. The sequences of the primers will be made available upon request. Poly(I:C) was added 48 h after siRNA transfection and IL-6 levels in the culture media were collected 24 h later.
# LL-37's enhancement of TLR3 signaling required trafficking of LL-37/poly(:C) to endosomes via the FPRL-1 receptor. Therefore, we examined whether LL-29 used the FPRL-1 receptor to enter cells. siRNA was used to knock down the expression of either FPRL-1, EGFR, or TLR3. […] Co-localization of fLL-37 and rpIC was reduced to less than a third of the control. […] Knockdowns performed with siRNAs to either a nonspecific control or EGFR had no effect on the enhancement of IL-6 production.
# Will LL-29 affect the use of the FPRL-1 receptor by the LL-37/poly(I:C) complex? BEAS-2B cells knocked down for FPRL-1 were treated with LL-37 along with additional concentrations of LL-37, Pentamide, LL-29, Peptide A, or LL8-37 (FIG. 6C). Signaling by TLR3 was determined by the amount of IL-6 secreted in the cell culture media. A control siRNA had no effect on WT LL-37/poly(I:C) enhancement of IL-6 production.
# LL-37 uses the Formyl peptide receptor-like 1 (FPRL-1) receptor to deliver nucleic acids into endosomes, where activation of the Toll-like receptors that recognize nucleic acids takes place (Singh et al., 2014). We sought to determine whether the LL-37 orthologs from other mammals could also use the FPRL-1 in the human BEAS-2B cells to deliver dsRNA. BEAS-2B cells were treated with poly(I:C) along with the peptides and the peptides from pig, sheep, rabbit, and mouse had reduced ability to use the FPRL-1 to activate IL-6 production.
# [2] = tested on: Escherichia coli ATCC 25922; assay: MIC assay, broth microdilution (CLSI); type: cell-based; settings: E. coli ATCC 25922; peptide: None
# Method: MIC assays were performed according to protocols for broth microdilution according to the Clinical Laboratory Standards Institute (CLSI, 2015. Methods for Dilution Antimicrobial susceptibility tests for bacterial that grow aerobically; Approved standard—tenth edition).
# poly(I:C) = assay: Fluorescence polarization, peptide binding to poly(I:C)
# Method: as §3
# LL-37 accompanies dsRNA to endosomes containing TLR3. However, it is unknown whether LL-37 will release the dsRNA in endosomes. Johansson et al. (1998) have previously determined that a neutral pH is required for the activity of LL-37. We seek to determine whether LL-37 binding to dsRNA can be affected by pH.
# [3] = tested on: LL-37 enhancement of TLR3 signaling; assay: Antagonism of LL-37/poly(I:C)-enhanced IL-6 production in BEAS-2B cells; type: cell-based, human; settings: peptide added with LL-37/poly(I:C), BEAS-2B cells
# Method: as §1
# We examined whether LL-29 could affect the enhancement of TLR3 signaling by WT LL-37/poly(I:C). An increasing amount of LL-29 along with a constant amount of LL-37/poly(I:C) was used to assess IL-6 production in BEAS-2B cells. […] That is, LL-29 abrogated LL-37's ability to enhance TLR3 signaling. That is, LL-29 is an example of a peptide antagonist of LL-37 function.
# Reovirus dsRNA, Reo S4 = assay: IL-6 production in BEAS-2B cells in the presence of Reovirus dsRNA Reo S4; type: cell-based, human
# Method: as §1
# Herein, we analyzed the LL-37 orthologs from Rhesus monkeys, pig, sheep, guinea pigs, rabbit, as well as mouse (FIG. 14A). All peptides were chemically synthesized and assayed for the induction of inflammatory cytokine IL-6 in the presence of the double-stranded RNA mimic, poly(I:C) or the Reovirus dsRNA, Reo S4 (FIGS. 14B and 14C). […] Importantly, all LL-37 orthologs tested had the ability to reduce IL-6 production in response to LPS (FIG. 14E).
Compound,"Enhancement of TLR3 signaling / poly(I:C)-induced IL-6, in words (TLR3 signaling)","Interaction with fLL-37, in words (f-LL37)",IL-6 production (%) poly(I:C)-depend. (TLR3 signaling),IL-6 production (%) LPS-depend. (TLR4 signaling),Hydrodynamic radius (nm) pH 5.8 [1],Hydrodynamic radius (nm) pH 7.4 [1],"pH-dependent dissociation of peptide particles, in words [1]","IL-6 production, peptide added along with LL-37 and poly(I:C), in words (FPRL-1 receptor)","MIC (μg/ml) of antibiotic, no peptide [2]","Binding to poly(I:C)/dsRNA in fluorescent polarization assay, in words (poly(I:C))",also measured
"RL-37: LL-37 ortholog from Rhesus monkey, SEQ ID NO: 20 (RLGNFFRKVKEKIGGGLKKVGQKIKDFLGNLVPRTAS; (1)..(37) Monkey RL-37; listed as Macaca mulatta) [reference compound]",more similar to that of the human LL-37,,,,,,,,,,
SKEKIGKEFKRIVQRIKDFLR [LL9-29],failed to enhance TLR3 signaling,did not,31 ± 3%,196 ± 11%,1281 nm,446.5 nm,failed to dissociate,,,,Binding f-LL37: fold change in the fluorescence anisotropy values of f-LL-37 (f-LL37; between 1.0 nM and 1000 nM of added peptide): 2.6 ± 0.2 fold
SKEKIGKEFKRIVQRIKDFLRNLVPRTES ((1)..(29) LL8-37; listed as Homo sapiens),,retain partial activity to interact with fLL-37,38 ± 3%,239 ± 21%,615 nm,825 nm,,had no effect on IL-6 production unless FPRL-1 expression was reduced,,,"IL-6 production, peptide with poly(I:C), in words (FPRL-1 receptor): did not enhance IL-6 production"
"NC[C@H]1O[C@H](O[C@H]2[C@H](O)[C@@H](O[C@H]3O[C@H](CO)[C@@H](O)[C@H](N)[C@H]3O)[C@H](N)C[C@@H]2N)[C@H](O)[C@@H](O)[C@@H]1O [Kanamycin, reference compound]",,,,,,,,,4 µg/mL,,
"COc1cccc2c1C(=O)c1c(O)c3c(c(O)c1C2=O)C[C@@](O)(C(=O)CO)C[C@@H]3O[C@H]1C[C@H](N)[C@H](O)[C@H](C)O1 [Doxorubicin, reference compound]",,,,,,,,,0.5 µg/mL,,
"LLGNFFRKSKQKIGKQFKRIVQRIKNFLRNLVPRTQS (not fully specified) [Pentamide, five acidic residues in LL-37 replaced with neutral-polar residues, reference compound]",failed to enhance TLR3 signaling,,31 ± 0%,400 ± 32%,1990 nm,1106 nm,failed to dissociate,had no effect on IL-6 production unless FPRL-1 expression was reduced,,failed to bind dsRNA,"Suppression of TLR4 signaling / LPS-induced IL-6, in words (TLR4 signaling; BEAS-2B cells): failed to suppress TLR4 signaling; IL-6 production, peptide with poly(I:C), in words (FPRL-1 receptor): did not enhance IL-6 production"
LLGDFFRKSKEKIGKEFKRIVQRIKDFLRKLVPQPEQ (listed as Homo sapiens) [Peptide A],,retained partial interaction with fLL-37; also recorded: retain partial activity to interact with fLL-37,41 ± 6%,161 ± 11%,956 nm,1990 nm,reduced for the ability to dissociate under acidic pH conditions,resulted in a reduction in IL-6 levels,,debilitated for binding RNA,"Antagonism of LL-37 enhancement of TLR3 signaling (IL-6), in words [3]: to a lesser degree than LL-29; also recorded: can partially antagonize the enhancement of TLR3 signaling"
"COc1cc(Cc2cnc(N)nc2N)cc(OC)c1OC [Trimethoprim, reference compound]",,,,,,,,,0.25 µg/mL,,
"GLLRKGGEKIGEKLKKIGQKIKNFFQKLVPQPEQ [mCRAMP, murine ortholog of LL-37, reference compound]",failed to enhance TLR3 signaling; also recorded: unable to enhance IL-6 production,,31 ± 3%,82 ± 29%,1106 nm,1718 nm,,,,failed to bind dsRNA,"Enhancement of IL-6 production / signaling by Reo S4, in words (Reovirus dsRNA, Reo S4): unable to enhance IL-6 production"
